Data taken from publication PMC8999677, “Critical Assessment of a Structure-Based Screening Campaign for IDO1 Inhibitors: Tips and Pitfalls” (International Journal of Molecular Sciences, 2022).

Tests used:
[1] = target: fluorescently labelled rhIDO1 (NT650-IDO1) (Homo sapiens, UniProt P14902); assay: Single-point MST binding assay at 250 µM; conditions: 250 µM compound, 50 nM labelled rhIDO1; F-norm outside vehicle signal and SD
[2] = target: recombinant human IDO1 (rhIDO1) (Homo sapiens, UniProt P14902); assay: Full-point MST binding assay against labelled rhIDO1; conditions: for BEI (binding efficiency index): BEI = pKd/MW (kDa)
P1.HTR cells = assay: Cytotoxicity seen in the P1.HTR cellular assay; assay type: cell-based, mouse; conditions: 30 µM, data not shown
Description: Accordingly, no correlation could be found between cellular activities and enzymatic binding data of tested compounds.
A cellular assay was performed to assess the functional activity of confirmed hit compounds against IDO1. Briefly, P1.HTR cells, a highly transfectable clonal variant of mouse mastocytoma P815 [59], were cultured in Iscove’s modified Dulbecco’s medium supplemented with 10% fetal calf serum (FCS), 1 mM glutamine and penicillin/streptomycin at 37 °C in a humidified 7% CO2 incubator. P1.HTR cells were transfected by electroporation with plasmid constructs coding for murine IDO1 (P1.IDO1). A stable transfectant cell line was obtained by puromycin selection. Cells at the concentration of 0.25 × 10^6 cell/mL were incubated with 30 µM of compounds for 16 h, using a culture medium containing L-Trp at a concentration of 78.4 µM and a HEPES buffer at pH 7.2.

murine IDO1 = target: T1, murine IDO1 (Mus musculus, UniProt P28776); assay: Cellular assay of IDO1 inhibition, L-Kyn production in P1.HTR cells; assay type: cell-based; conditions: 16 h; for FC L-Kyn (fold change of L-Kyn production): 30 µM compound, P1.HTR cells stably transfected with murine IDO1, versus vehicle, mean ± SD
T1 construct: expressed in transfected cells
Description: The functional activity of confirmed IDO1 ligands was estimated in murine mastocytoma cell line (P1.HTR) stably transfected with murine IDO1. Specifically, P1.HTR cells were cultured in presence of each compound at 30 µM concentration.
Briefly, P1.HTR cells, a highly transfectable clonal variant of mouse mastocytoma P815 [59], were cultured in Iscove’s modified Dulbecco’s medium supplemented with 10% fetal calf serum (FCS), 1 mM glutamine and penicillin/streptomycin at 37 °C in a humidified 7% CO2 incubator. P1.HTR cells were transfected by electroporation with plasmid constructs coding for murine IDO1 (P1.IDO1). A stable transfectant cell line was obtained by puromycin selection.
A cell culture incubated with an equivalent volume of DMSO (the vehicle in which compounds were solubilized) was used as a reference control. After the incubation, supernatants of cell cultures were recovered, and kynurenine concentration was detected by the HPLC method. Every cell assay was conducted in triplicate. Results were expressed as the mean ± standard deviation of the kynurenine fold change (L-Kyn FC), meaning the ratio between kynurenine concentration secreted in the supernatant of the compound-treated versus vehicle-treated cells. The detection of L-Kyn concentrations was performed by using a PerkinElmer, series 200 HPLC instrument. A Kinetex C18 column (250 × 4.6 mm, 5 μm, 100 A; Phenomenex, CA, USA), maintained at the temperature of 25 °C and a pressure of 1800 PSI, was used. […] L-Kyn was detected at 360 nm by an UV detector. The software TURBOCHROM 4 was used for evaluating the concentration of L-Kyn in samples by means of a calibration curve. The detection limit of the analysis was 0.05 μM.

[3] = Potentiometric pKa determination (Sirius T3); assay type: physicochemical; conditions: for exppKa: Sirius T3, Yasuda-Shedlovsky extrapolation to 0% methanol, first or only value
Description: (§1) Confirmed IDO1 ligands were profiled for the calculation and experimental determination of their acidic constant (calcpKa, exppKa) and n-octanol/water partition coefficient (calclogP, explogP). […] Four of these compounds (19–22) were titrated with a potentiometric method to determine the relative exppKa and explogP, using a Sirius T3 instrument. The remaining two compounds (16, 17) were not experimentally analyzed because their calcpKa values were too close to the upper detection limit of the Sirius T3 instrument.
(§2) Acidic constants (pKa) and octanol/water partition coefficients (logP) of confirmed hit compounds were firstly calculated using the pKa and logP plugins of the program Marvin (Marvin v20.11, ChemAxon, Budapest, Hungary).
(§3) The experiments were set up with Sirius T3 control software (Sirius T3 v1.1.3.0, Pion Inc. Ltd., Forest Row, East Sussex, UK), specifying the volume of the stock solution to be used, molecular weight, number of expected pKa and their calculated values (calcpKa), predicted logP (calclogP), and titration mode (from pH = 2 to 12 for basic compounds, and from pH = 12 to 2 for acidic compounds). To avoid issues of poor solubility during the titration in ISA water, the pKa analyses were carried out in triplicate with different ratios of organic cosolvent methanol and water (50%, 40%, and 30% methanol). Considering the modification of water’s dielectric constant in the presence of an organic solvent, the pKa at 0% of co-solvent was obtained through the method of Yasuda–Shedlovsky (YS) extrapolation to zero [58]. The validity of the analysis was assessed with the r^2 of the YS method, and results were considered acceptable with an r^2 ≥ 0.9. Titration results were analyzed with Sirius T3 refine software (Sirius T3 v1.1.3.0, Pion Inc. Ltd., Forest Row, East Sussex, UK). Octanol/water partition coefficient (logP) was measured through a potentiometric titration in a biphasic system, using ISA water and n-octanol. Specifically, Sirius T3 control software uses three evaluation models of experimental logP, whose choice is based on the calculated logP values (calclogP < 1, “Low-logP” method; 1 < calclogP < 3, “Medium-logP” method; calclogP > 3, “High-logP” method). Accordingly, the “Medium-logP” method was selected to evaluate the experimental logP (explogP) of the selected compounds. The titration was performed in triplicate and the raw data were elaborated using Sirius T3 refine software. The quality of the analysis was evaluated by comparing the titration curve of each analysis by calculating a root mean square deviation (RMSD). All the analysis yielded RMSD values < 0.5.

[4] = Potentiometric logP determination (Sirius T3); assay type: physicochemical; conditions: for logP: n-octanol/ISA water biphasic system, read-out: explogP
Description: as §1, §2, §3

Sequence of recombinant human IDO1 (rhIDO1) (P14902 whole entry): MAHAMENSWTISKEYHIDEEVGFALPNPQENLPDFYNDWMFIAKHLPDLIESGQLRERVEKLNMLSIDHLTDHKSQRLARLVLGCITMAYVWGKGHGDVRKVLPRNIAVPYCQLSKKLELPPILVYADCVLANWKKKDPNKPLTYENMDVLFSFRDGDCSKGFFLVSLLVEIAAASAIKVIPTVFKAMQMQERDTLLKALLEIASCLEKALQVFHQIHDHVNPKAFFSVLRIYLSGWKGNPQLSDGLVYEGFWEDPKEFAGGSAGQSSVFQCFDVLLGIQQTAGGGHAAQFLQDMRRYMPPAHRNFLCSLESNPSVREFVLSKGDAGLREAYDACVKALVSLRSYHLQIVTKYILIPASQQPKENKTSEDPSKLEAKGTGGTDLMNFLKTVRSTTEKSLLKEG
Sequence of fluorescently labelled rhIDO1 (NT650-IDO1) (P14902 whole entry): as above
T1 sequence (P28776 whole entry): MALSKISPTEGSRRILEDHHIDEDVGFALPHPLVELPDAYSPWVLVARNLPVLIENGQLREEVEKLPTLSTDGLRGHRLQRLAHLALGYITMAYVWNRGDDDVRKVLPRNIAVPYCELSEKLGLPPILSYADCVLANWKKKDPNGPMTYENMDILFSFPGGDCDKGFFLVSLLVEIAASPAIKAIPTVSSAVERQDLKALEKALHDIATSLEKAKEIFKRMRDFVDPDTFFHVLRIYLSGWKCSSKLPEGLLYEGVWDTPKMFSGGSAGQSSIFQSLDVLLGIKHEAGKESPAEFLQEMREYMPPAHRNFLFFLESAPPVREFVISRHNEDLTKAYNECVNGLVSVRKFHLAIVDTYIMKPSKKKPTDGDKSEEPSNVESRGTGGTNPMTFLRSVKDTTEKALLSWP

Single-point MST classification [1]	Kd [2] [µM]	BEI (binding efficiency index) [2]	FC L-Kyn (fold change of L-Kyn production) (murine IDO1)	Inhibition in P1.HTR cells (in words) (murine IDO1; 30 µM)	exppKa [3]	logP [4]	exppKa (second value) ([3]; Sirius T3, value printed after the slash)	explogP ([4]; n-octanol/water)	Structure (SMILES)	Cytotoxicity (P1.HTR cells)
false positive hit compound									NC(=O)Cn1c(/C=C/c2ccccc2)nc2ccccc21 [VIS539]	
binders	37.5 ± 11.5	18							O=C1Nc2ccccc2/C1=C/C(=O)c1ccccc1 [VIS540 (16)]	cytotoxic
binders	59.3 ± 22.9	16	0.55 ± 0.02						CN(C(=O)Nc1c[nH]c2ccccc12)c1ccccc1 [VIS544 (17)]	
binders	4.83 ± 0.61	19		weak inhibitor					O=C(NC1CCC(F)(F)CC1)c1ccc2cc[nH]c2c1 [VIS557 (18)]	
binders	51.9 ± 18.4	16			8.1	2.1			O=C(Nc1nnc(-c2ccc(Cl)cc2)o1)C1CC1 [VIS572 (19)]	
binders	80.7 ± 10.6	15			5.7	1.9			NC(=O)C1CCN(c2ccc3cccc(O)c3n2)CC1 [VIS580 (20)]	
binders	73.3 ± 16.2	14	0.56 ± 0.05		3.9	2	6.3		O=C(NCc1ccccn1)c1nn[nH]c1-c1ccc(F)cc1 [VIS597 (21)]	
					6.7			3.2	OC(CC1c2ccccc2-c2cncn21)C1CCCCC1 (stereo not drawn) [compound 10, NLG919 analogue, reference compound]	

Structure (SMILES)	Single-point MST classification [1]	Kd [2] [µM]	BEI (binding efficiency index) [2]	FC L-Kyn (fold change of L-Kyn production) (murine IDO1)	Inhibition in P1.HTR cells (in words) (murine IDO1; 30 µM)	exppKa [3]	logP [4]	exppKa (second value) ([3]; Sirius T3, value printed after the slash)	explogP ([4]; n-octanol/water)	Cytotoxicity (P1.HTR cells)
O=C(/C=C/c1ccco1)c1ccc(O)cc1 [VIS574 (22)]		37 ± 16.8	21			7.8	2.6			
